Measurements as given in patent publication US20180073031A1, “TRANSCRIPTIONAL SENSOR FOR BILE ACIDS IN BACTEROIDES THETAIOTAOMICRON” (priority 2016, published 2018).

Tests used:
[1] = test system: bile acid sensor BreR from V. cholerae; format: cell-based; conditions: for Sensitivity: BreR bile acid sensor in B. thetaiotaomicron; for Sensitivity / Basal Activity: ± SD; for Basal Activity / Dynamic Range: BreR bile acid sensor; for Basal Activity: basal reporter luminescence; for Dynamic Range: reporter induction; for sensor sensitive to substance (FIG. 4 legend): in vitro functionality; for induction of reporter luminescence by bile acid: strain grown with various concentrations of bile acids, FIGS. 4B-4G
[2] = test system: VFA0359 from Vibrio fischeri; assay: Luciferase assay of bile acid sensor using VFA0359 in B. thetaiotaomicron; format: cell-based; conditions: same operator sequence as BreR

Compound: C[C@H](CCC(=O)O)[C@H]1CC[C@H]2[C@@H]3[C@H](O)C[C@@H]4C[C@H](O)CC[C@]4(C)[C@H]3C[C@H](O)[C@]12C [CA, cholic acid]
- relative sensitivity of the sensor among deconjugated bile acids [1]: least sensitive
- Sensitivity [1]: 0.8 ± 0.2 Lum/μM*10^−5
- Basal Activity [1]: 2.1 ± 0.7 Lum × 10^4
- Dynamic Range [1]: 18.5 ± 3.8 fold-change
- sensor sensitive to substance (FIG. 4 legend) [1]: sensitive
- induction of reporter luminescence by bile acid [1]: induced luminescence in a dose dependent manner

Compound: C[C@H](CCC(=O)O)[C@H]1CC[C@H]2[C@@H]3[C@H](O)C[C@@H]4C[C@H](O)CC[C@]4(C)[C@H]3CC[C@]12C [CDCA, chenodeoxycholic acid]
- relative sensitivity of the sensor among deconjugated bile acids [1]: moderately sensitive
- Sensitivity [1]: 2.3 ± 1.1 Lum/μM*10^−5
- Basal Activity [1]: 1.9 ± 0.4 Lum × 10^4
- Dynamic Range [1]: 25.8 ± 11.1 fold-change
- sensor sensitive to substance (FIG. 4 legend) [1]: sensitive
- induction of reporter luminescence by bile acid [1]: induced luminescence in a dose dependent manner

Compound: C[C@H](CCC(=O)O)[C@H]1CC[C@H]2[C@@H]3CC[C@@H]4C[C@H](O)CC[C@]4(C)[C@H]3C[C@H](O)[C@]12C [DCA, deoxycholic acid]
- Sensitivity [1]: 25.8 ± 7.6 Lum/μM*10^−5
- Basal Activity [1]: 1.7 ± 0.8 Lum × 10^4
- Dynamic Range [1]: 71.5 ± 3.4 fold-change
- induced gene expression of the reporter construct [2]: ~600 fold

Compound: C[C@H](CCC(=O)NCC(=O)O)[C@H]1CC[C@H]2[C@@H]3[C@H](O)C[C@@H]4C[C@H](O)CC[C@]4(C)[C@H]3C[C@H](O)[C@]12C [GCA, glycocholic acid]
- sensor sensitive to substance (FIG. 4 legend) [1]: not
- induction of reporter luminescence by bile acid [1]: does not sense

Compound: C[C@H](CCC(=O)O)[C@H]1CC[C@H]2[C@@H]3CC[C@@H]4C[C@H](O)CC[C@]4(C)[C@H]3CC[C@]12C [LCA, lithocholic acid]
- Sensitivity [1]: 1.4 ± 0.8 Lum/μM*10^−5
- Basal Activity [1]: 2.2 ± 0.9 Lum × 10^4
- Dynamic Range [1]: 17.5 ± 4.9 fold-change

Compound: C[C@H](CCC(=O)NCCS(=O)(=O)O)[C@H]1CC[C@H]2[C@@H]3[C@H](O)C[C@@H]4C[C@H](O)CC[C@]4(C)[C@H]3C[C@H](O)[C@]12C [TCA, taurocholic acid]
- sensor sensitive to substance (FIG. 4 legend) [1]: not
- induction of reporter luminescence by bile acid [1]: does not sense

Compound: CC(C)CCC[C@@H](C)[C@H]1CC[C@H]2[C@@H]3CC=C4C[C@@H](O)CC[C@]4(C)[C@H]3CC[C@]12C [cholesterol]
- sensor sensitive to substance (FIG. 4 legend) [1]: not
